Experimental data: patent US5955497A, “Bioactive acetogenins” (Purdue Research Foundation, priority 1998, dated 1999)
Values after ≈ are worked out from the molar mass of the structure shown. “Also recorded” adds a separate entry of the source.

Experiments:
[1] = tested on: A2780 human ovarian cancer xenografts; conditions: 50 μg/kg, athymic mice bearing A2780 human ovarian cancer xenografts; cited from earlier work
[2] = tested on: PC-3 (human prostate adenocarcinoma); assay: seven-day in vitro cytotoxicity, PC-3; format: cell-based; conditions: for activity relative to the positive control adriamycin: PC-3, versus adriamycin; for selectivity for the prostate cell line (PC-3): PC-3, versus other cell lines of Table 1
Experimental: (§1) The cytotoxicities of squamotacin, molvizarin and bullatacin were evaluated, in the same run, against a panel of six cell lines (Table 1). Adriamycin was included as a standard. The relative cytotoxicity of the compounds to non-tumor cells was determined based on the brine shrimp lethality assay (BSA). The panel of tumor cell lines tested includes human lung carcinoma (A-549), human breast carcinoma (MCF-7), human colon adenocarcinoma (HT-29), human renal carcinoma (A-498), human prostate adenocarcinoma (PC-3) and human pancreatic carcinoma (PACA-2).
(§2) The brine shrimp (Artemia salina Leach) test (BST) was performed as modified to determine LC50 values in μg/ml. Zhao et al., Phytochemistry, 33, p. 1065 (1993). Seven-day in vitro cytotoxicity tests against human tumor cell lines were carried out at the Purdue Cancer Center, using standard protocols for A-549 (human lung carcinoma), MCF-7 (human breast carcinoma) and HT-29 (human colon carcinoma), human renal carcinoma (A-498), human prostate adenocarcinoma (PC-3) and human pancreatic carcinoma (PACA-2) with adriamycin as a positive control. The reported ED50 values in μg/ml (Table 1) were tabulated from the same run, except where noted, in order to facilitate comparison for the SAR's.

[3] = tested on: panel of six cell lines (A-549, MCF-7, HT-29, A-498, PC-3, PACA-2); assay: cytotoxicity against the panel of six human tumor cell lines; format: cell-based; conditions: for spectra of cytotoxic selectivities, squamotacin versus molvizarin: Table 1
Experimental: as §1, §2

in vivo = assay: in vivo; design: species or system Artemia salina Leach (brine shrimp); conditions: brine shrimp larvae, read-out: BST LC30
Experimental: as §1, §2

| Compound | tumor growth inhibition (TGI) [1] | activity relative to the positive control adriamycin [2] | selectivity for the prostate cell line (PC-3) [2] | spectra of cytotoxic selectivities, squamotacin versus molvizarin [3] | activity relative to bullatacin in the cell panel ([3]; six cell lines, versus bullatacin) | LC50 (in vivo) |
| --- | --- | --- | --- | --- | --- | --- |
| CCCCCCCCCC[C@H](O)[C@H]1CC[C@H]([C@H]2CC[C@H]([C@H](O)CCCCCCCCCC[C@@H](O)CC3=C[C@H](C)OC3=O)O2)O1 [Compound 3, bullatacin] | 67% | – | – | – | – | – |
| CCCCCCCCCCCC[C@H](O)[C@H]1CC[C@H]([C@H]2CC[C@H]([C@H](O)CCCCCCCC[C@@H](O)CC3=C[C@H](C)OC3=O)O2)O1 [Compound 1, squamotacin] | – | over 100 million | high selectively for the prostate cell line (PC-3); also recorded: high selectivity | quite similar | less activity than bullatacin in five of the six cell lines tested, with HT-29 (colon) being the exception | 6.8 ng/mL (≈ 0.0109 µM) |
| CCCCCCCCCC[C@H](O)[C@H]1CC[C@H]([C@H]2CC[C@H]([C@H](O)CCCCCCCC[C@@H](O)CC3=C[C@H](C)OC3=O)O2)O1 [Compound 2, molvizarin] | – | over 100 million | high selectively for the prostate cell line (PC-3); also recorded: showed selectivity for PC-3; also recorded: high selectivity | quite similar | – | – |
